From the supplement of paper PMC10307832

Compound: N[C@@H]1CCCN(c2c(/C=C3\SC(=O)NC3=O)cccc2-c2ccccc2)C1 [AZD1208] + CC(=O)Nc1cccc(-n2c(=O)n(C3CC3)c(=O)c3c(Nc4ccc(I)cc4F)n(C)c(=O)c(C)c32)c1 [Trametinib] (partner 0.02 µM)
Assay: relative viability (nuclei count vs DMSO), 5 days (fraction); higher = more cells survive
Settings: first compound 0.08 µM
Summary of the method: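 Nuclei were stained with Hoechst during a one-step fixation (final 0.05% Triton X-100, 1% formaldehyde, 1 ug/ml Hoechst) carried out 5 days after dosing, then counted on 4× images. The cells, lung cancer lines in 1536-well plates, had been dosed by pin tool the day after seeding with one drug alone or a fixed anchor-drug dose plus five library-drug doses (not always all listed) in √10 steps. Relative viability is the nuclei count in treated wells divided by that in vehicle wells, and each value is the median of duplicate plates.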

Q: How did the relative viability turn out when NCI-H727 was run?
A: 0.413

Q: How did the relative viability turn out when NCI-H1734 was run?
A: 0.659

Q: Which relative viability does the source give for NCI-H520 here?
A: 0.633

Q: For NCI-H2405, which relative viability is on record?
A: 0.582

Q: For SW 1573, which relative viability is on record?
A: 0.433

Q: Which relative viability does the source give for NCI-H1395 here?
A: 1.03

Q: 201T was tested. Which relative viability did it give?
A: 0.749

Q: For NCI-H1915, which relative viability is on record?
A: 0.271

Q: Which relative viability does the source give for HCC-827 here?
A: 0.557

Q: How did the relative viability turn out when LXF-289 was run?
A: 0.678

Q: Which relative viability does the source give for NCI-H2347 here?
A: 0.316

Q: With NCI-H650 as the cell line, how does the relative viability read?
A: 0.852

Q: CAL-12T was tested. Which relative viability did it give?
A: 0.377

Q: NCI-H1651 was tested. Which relative viability did it give?
A: 0.87

Q: Which relative viability does the source give for EPLC-272H here?
A: 0.312

Q: For NCI-H23, which relative viability is on record?
A: 0.361

Q: How did the relative viability turn out when NCI-H1792 was run?
A: 0.424

Q: Which relative viability does the source give for NCI-H1355 here?
A: 0.429

Q: With NCI-H322M as the cell line, how does the relative viability read?
A: 0.49

Q: How did the relative viability turn out when NCI-H1437 was run?
A: 0.423

Q: Which relative viability does the source give for NCI-H1755 here?
A: 0.755

Q: With NCI-H2085 as the cell line, how does the relative viability read?
A: 0.55

Q: Which relative viability does the source give for HCC-15 here?
A: 0.381

Same assay, conditions: first compound 0.253 µM

Q: How did the relative viability turn out when NCI-H441 was run?
A: 0.547

Q: LCLC-97TM1 was tested. Which relative viability did it give?
A: 0.172

Q: With NCI-H2023 as the cell line, how does the relative viability read?
A: 0.55

Q: A-427 was tested. Which relative viability did it give?
A: 0.71

Q: Which relative viability does the source give for NCI-H460 here?
A: 0.189

Q: With NCI-H727 as the cell line, how does the relative viability read?
A: 0.325

Q: For NCI-H1734, which relative viability is on record?
A: 0.583

Q: How did the relative viability turn out when NCI-H520 was run?
A: 0.678

Q: NCI-H2405 was tested. Which relative viability did it give?
A: 0.56

Q: SW 1573 was tested. Which relative viability did it give?
A: 0.438

Q: For NCI-H1395, which relative viability is on record?
A: 1.08

Q: How did the relative viability turn out when 201T was run?
A: 0.716

Q: NCI-H1915 was tested. Which relative viability did it give?
A: 0.288

Q: Which relative viability does the source give for HCC-827 here?
A: 0.516

Q: How did the relative viability turn out when LXF-289 was run?
A: 0.629

Q: Which relative viability does the source give for NCI-H2347 here?
A: 0.27

Q: How did the relative viability turn out when NCI-H650 was run?
A: 0.904

Q: Which relative viability does the source give for CAL-12T here?
A: 0.331

Q: NCI-H1651 was tested. Which relative viability did it give?
A: 0.81

Q: With EPLC-272H as the cell line, how does the relative viability read?
A: 0.268

Q: Which relative viability does the source give for NCI-H23 here?
A: 0.301

Q: With NCI-H1792 as the cell line, how does the relative viability read?
A: 0.368

Q: How did the relative viability turn out when NCI-H1355 was run?
A: 0.391

Q: NCI-H322M was tested. Which relative viability did it give?
A: 0.487

Q: For NCI-H1437, which relative viability is on record?
A: 0.597

Q: For NCI-H1755, which relative viability is on record?
A: 0.841

Q: For NCI-H2085, which relative viability is on record?
A: 0.475

Q: HCC-15 was tested. Which relative viability did it give?
A: 0.338

Same assay, conditions: first compound 0.8 µM

Q: How did the relative viability turn out when NCI-H441 was run?
A: 0.327

Q: LCLC-97TM1 was tested. Which relative viability did it give?
A: 0.137

Q: For NCI-H2023, which relative viability is on record?
A: 0.416

Q: A-427 was tested. Which relative viability did it give?
A: 0.6

Q: How did the relative viability turn out when NCI-H460 was run?
A: 0.138

Q: NCI-H727 was tested. Which relative viability did it give?
A: 0.352

Q: For NCI-H1734, which relative viability is on record?
A: 0.535

Q: Which relative viability does the source give for NCI-H520 here?
A: 0.279

Q: With NCI-H2405 as the cell line, how does the relative viability read?
A: 0.562

Q: Which relative viability does the source give for SW 1573 here?
A: 0.44

Q: For NCI-H1395, which relative viability is on record?
A: 0.932

Q: With 201T as the cell line, how does the relative viability read?
A: 0.721

Q: For NCI-H1915, which relative viability is on record?
A: 0.247

Q: Which relative viability does the source give for HCC-827 here?
A: 0.536

Q: Which relative viability does the source give for LXF-289 here?
A: 0.673

Q: NCI-H2347 was tested. Which relative viability did it give?
A: 0.257

Q: NCI-H650 was tested. Which relative viability did it give?
A: 1.1

Q: Which relative viability does the source give for CAL-12T here?
A: 0.339

Q: For EPLC-272H, which relative viability is on record?
A: 0.279

Q: For NCI-H23, which relative viability is on record?
A: 0.272

Q: Which relative viability does the source give for NCI-H1355 here?
A: 0.416

Q: Which relative viability does the source give for NCI-H1437 here?
A: 0.358

Q: For NCI-H1755, which relative viability is on record?
A: 0.779

Q: How did the relative viability turn out when NCI-H2085 was run?
A: 0.558

Q: HCC-15 was tested. Which relative viability did it give?
A: 0.326

Same assay, conditions: first compound 2.53 µM

Q: For NCI-H441, which relative viability is on record?
A: 0.405

Q: With LCLC-97TM1 as the cell line, how does the relative viability read?
A: 0.183

Q: With NCI-H2023 as the cell line, how does the relative viability read?
A: 0.506

Q: A-427 was tested. Which relative viability did it give?
A: 0.619

Q: Which relative viability does the source give for NCI-H460 here?
A: 0.109

Q: With NCI-H727 as the cell line, how does the relative viability read?
A: 0.395

Q: How did the relative viability turn out when NCI-H1734 was run?
A: 0.525

Q: How did the relative viability turn out when NCI-H520 was run?
A: 0.55

Q: NCI-H2405 was tested. Which relative viability did it give?
A: 0.528

Q: Which relative viability does the source give for SW 1573 here?
A: 0.419

Q: Which relative viability does the source give for NCI-H1395 here?
A: 1.01

Q: 201T was tested. Which relative viability did it give?
A: 0.725

Q: With NCI-H1915 as the cell line, how does the relative viability read?
A: 0.277

Q: Which relative viability does the source give for HCC-827 here?
A: 0.524

Q: LXF-289 was tested. Which relative viability did it give?
A: 0.694

Q: For NCI-H2347, which relative viability is on record?
A: 0.264

Q: With NCI-H650 as the cell line, how does the relative viability read?
A: 0.93

Q: For CAL-12T, which relative viability is on record?
A: 0.332

Q: NCI-H1651 was tested. Which relative viability did it give?
A: 0.742

Q: For EPLC-272H, which relative viability is on record?
A: 0.254

Q: NCI-H23 was tested. Which relative viability did it give?
A: 0.347

Q: How did the relative viability turn out when NCI-H1792 was run?
A: 0.312

Q: NCI-H1355 was tested. Which relative viability did it give?
A: 0.401

Q: With NCI-H322M as the cell line, how does the relative viability read?
A: 0.566

Q: For NCI-H1437, which relative viability is on record?
A: 0.419

Q: NCI-H1755 was tested. Which relative viability did it give?
A: 0.705

Q: Which relative viability does the source give for NCI-H2085 here?
A: 0.446

Q: How did the relative viability turn out when HCC-15 was run?
A: 0.312

Same assay, conditions: first compound 8 µM

Q: How did the relative viability turn out when NCI-H441 was run?
A: 0.446

Q: LCLC-97TM1 was tested. Which relative viability did it give?
A: 0.162

Q: For NCI-H2023, which relative viability is on record?
A: 0.394

Q: Which relative viability does the source give for A-427 here?
A: 0.537

Q: With NCI-H460 as the cell line, how does the relative viability read?
A: 0.124

Q: How did the relative viability turn out when NCI-H727 was run?
A: 0.39

Q: How did the relative viability turn out when NCI-H1734 was run?
A: 0.434

Q: How did the relative viability turn out when NCI-H520 was run?
A: 0.502

Q: How did the relative viability turn out when NCI-H2405 was run?
A: 0.453

Q: Which relative viability does the source give for SW 1573 here?
A: 0.317

Q: For NCI-H1395, which relative viability is on record?
A: 0.878

Q: For 201T, which relative viability is on record?
A: 0.732

Q: With NCI-H1915 as the cell line, how does the relative viability read?
A: 0.232

Q: Which relative viability does the source give for HCC-827 here?
A: 0.398

Q: How did the relative viability turn out when LXF-289 was run?
A: 0.747

Q: NCI-H2347 was tested. Which relative viability did it give?
A: 0.26

Q: Which relative viability does the source give for NCI-H650 here?
A: 0.743

Q: How did the relative viability turn out when CAL-12T was run?
A: 0.251

Q: For NCI-H1651, which relative viability is on record?
A: 0.746

Q: With EPLC-272H as the cell line, how does the relative viability read?
A: 0.315

Q: Which relative viability does the source give for NCI-H23 here?
A: 0.303

Q: NCI-H1792 was tested. Which relative viability did it give?
A: 0.306

Q: NCI-H1355 was tested. Which relative viability did it give?
A: 0.366

Q: Which relative viability does the source give for NCI-H322M here?
A: 0.578

Q: NCI-H1437 was tested. Which relative viability did it give?
A: 0.408

Q: For NCI-H1755, which relative viability is on record?
A: 0.647

Q: Which relative viability does the source give for NCI-H2085 here?
A: 0.531

Q: With HCC-15 as the cell line, how does the relative viability read?
A: 0.296
